Results from patent publication US20260232796A1, “COMBINATION THERAPIES WITH AN ANTI-FACTOR XI/FACTOR XIA ANTIBODY” (Anthos Therapeutics, Inc., priority 2022, published 2026).
Like-named read-outs stand apart in the source and are kept apart here.

Columns and labels:
[1] = system: platelet aggregation; assay: Impedance platelet aggregometry in whole blood spiked with aspirin +/- Antibody 1; type: cell-based; conditions: Homo sapiens, aspirin 1 mg/mL
Description: Two studies were conducted concurrently. Blood specimens were obtained in EDTA and citrate tubes (6 healthy donors for each study). In the first study, whole blood was spiked with vehicle, aspirin (1 mg/mL), or aspirin (1 mg/mL)+Antibody 1 (125, 250, and 500 nM). Platelet aggregation was measured by impedance platelet aggregometry following induction with collagen (3.2 μg/mL) or arachidonic acid (0.5 mM) (Multiplate® analyzer, COLtest and ASPItest reagents; Roche Diagnostics International Ltd, Rotkreuz, Switzerland).

[2] = system: platelet aggregation; assay: Impedance platelet aggregometry in whole blood spiked with ticagrelor +/- Antibody 1; type: cell-based, human; conditions: ticagrelor 3 μM
Description: In the second study, whole blood was spiked with vehicle, ticagrelor (3 μM), or ticagrelor (3 μM)+Antibody 1 (125, 250, and 500 nM). Platelet aggregation was measured with the same methodology following induction by ADP (6.4 μM) or thrombin receptor activating peptide-6 (TRAP-6, 32 μM).

[3] = system: platelet aggregation; assay: Whole blood platelet aggregation, multiplate impedance aggregometer (Example 1); type: cell-based, human; conditions: collagen 1 μg/mL, Antibody 1 250, 500 or 1000 nM, abciximab 50 nM, vs vehicle
Description: (§1) Whole blood was obtained in EDTA and citrate tubes (6 healthy donors). Specimens were spiked with vehicle, Antibody 1 (250, 500, or 1000 nM), or abciximab (50 nM). Platelet aggregation was recorded following induction using collagen (1 μg/mL) or TRAP-6 (8 μM) using a multiplate impedance aggregometer. The area under the curve (AUC) for platelet aggregation was determined in arbitrary aggregation*time (AU*min). Thrombin generation was also measured at the above Antibody 1 and abciximab concentrations in platelet-rich plasma using Thrombinoscope CAT (Calibrated Automated Thrombogram; Stago CH S.A. and tissue factor reagent (1 μM); fluorescence was measured by an automated plate reader fluorometer.

[4] = system: thrombin generation; assay: Thrombin generation in platelet-rich plasma, Calibrated Automated Thrombogram; type: biochemical, human; conditions: tissue factor reagent, abciximab 50 nM
Description: as §1

Molecule: CC(=O)Oc1ccccc1C(=O)O [aspirin]
- inhibition at 1000 µg/mL ([1]; arachidonic acid 0.5 mM, p<0.05, read-out: inhibition of platelet aggregation induced with arachidonic acid): 71%
- inhibition at 1000 µg/mL ([1]; collagen 3.2 μg/mL, p<0.05, read-out: inhibition of platelet aggregation induced with collagen): 60%

Molecule: CCCSc1nc(N[C@@H]2C[C@H]2c2ccc(F)c(F)c2)c2nnn([C@@H]3C[C@H](OCCO)[C@@H](O)[C@H]3O)c2n1 [ticagrelor]
- inhibition at 3 µM ([2]; Homo sapiens, Platelet, ADP 6.4 μM, p<0.05, read-out: inhibition of platelet aggregation induced with ADP): 54%
- inhibition of platelet aggregation induced with TRAP-6 ([2]; TRAP-6 32 μM, p<0.05): 31%

B1: abciximab (antibody, chains of the INN, looked up, V domains shown)
VH: EVQLQQSGTVLARPGASVKMSCEASGYTFTNYWMHWVKQRPGQGLEWIGAIYPGNSDTSYIQKFKGKAKLTAVTSTTSVYMELSSLTNEDSAVYYCTLYDGYYVFAYWGQGTLVTVSA
VL: EIVLTQSPVTLSVTPGDSVSLSCRASRDISNNLHWFQQTSHESPRLLIKYASQSMSGIPSRFSGSGSGTDFTLSINSVETEDFGMYFCQQTNSWPYTFGGGTKLEIK
modifications: Fab
- platelet aggregation induced by collagen [3]: significant reductions
- effect on thrombin generation [4]: no effect
